According to US10987377B2, “Use of inhaled gaseous nitric oxide as a mucolytic agent or expectorant” (Advanced Inhalation Therapies (AIT), Ltd., priority 2004, dated 2021):
Several values for one entry are separate records, joined by “and”; a condition that tells them apart may be missing. Equal entries are not always repeated.

What was measured:
[1] = tested on: Standardbred horses with excessive mucus accumulation; experiment: Example 2: inhalant Nitric Oxide gas in Standardbred horses with excessive mucus accumulation, post race endoscopic mucus score; format: in vivo, equine; parameters: key to Decrease in Mucus Score: Dixon score: 0 = no mucus, 1-5 = increasing mucus; pre minus post
Description: Twenty-seven Standardbred horses were referred to this study with a history of poor performance and with evidence of excessive mucus accumulation as surveyed by endoscopic exam. This was a single site population study and the subjects served as their own control.
Horses were examined pretreatment by videoendocscopy on a minimum of two consecutive occasions post race, one week or longer between scopings, to document the degree and persistence of mucus residence. The endoscope was passed to the level of the bifurcation of the trachea (carina) with images logged on a video recorder. The Dixon et al. scoring system was used to indicate the presence or absence of mucus, as well as its severity, if present. Zero indicates absence of mucus, and 1 to 5 indicating increasing amounts of mucus observed endoscopically in the trachea. Scoring was done by the veterinarian conducting the examination, then later by another “blinded” individual using the recorded examination.
Treatment via a metered delivery device was provided that included a source of nitric oxide from a pressurized gas cylinder and a delivery interface with the subject's nare. The Nitric Oxide delivery device is enabled by a microprocessor-based computer (Pulmonox Medical Inc, Tofield, Alberta, Canada) wherein a proportionate flow rate of Nitric Oxide gas is delivered based on the horse's tidal volume/minute ventilation with a resulting airway/pulmonary concentration of 160-200 ppm.
Upon enrollment in the study a candidate for the treatment intervention was administered 100 breathes of NO gas as previously described for a minimum of three days. A follow up endoscopic exam on the next available immediate post race was performed and a mucus score assigned. Post race endoscopic exams were continued for several events as a measurable outcome. Depending on the results (i.e. no change or a graded increase in mucus scores) multiple treatment cycles were continued and the results recorded via post race endoscopic exam over the next of several weeks.

[2] = tested on: healthy bovine; experiment: Preliminary experiments with healthy bovine, prevention of mucus accumulation; format: in vivo; details: inhaled
Description: Additionally, inhaled nitric oxide containing gas may act as a preventative measure in the accumulation of mucus in the airways. […] Such a risk may be associated with recent infection and/or contact with other infected mammals. […] The delivery of inhaled nitric oxide containing gas may be administered to these risk mammals in order to prevent mucus accumulation in the airway. Effective therapeutic amounts may also refer to an amount sufficient to break down the viscoelastic mucus and increase mucociliary transport in the mammal's airway and to increase MMC in the mammal. Therefore, treating mucus accumulation in the airways of a mammal comprises reducing mucus accumulation, preventing mucus accumulation, reducing mucociliary dyskinesia, and/or preventing mucociliary dyskinesia.

[3] = tested on: Thoroughbred racehorses with excessive mucus production; experiment: Example 1: inhaled gaseous NO in Thoroughbred racehorses with excessive mucus, endoscopic mucus scoring; format: in vivo, equine; parameters: key to Mucus status: NG = No change in status; details: for Side effects: equine study, inhaled administration
Description: Six (6) Thoroughbred racehorses at a major racing jurisdiction were quarantined for two weeks, and each horse had evidence of excessive mucus production as surveyed by clinical presentation and by endoscopic exam. The horses were isolated from each other and were being medicated daily in series with several broad-spectrum antimicrobials routinely employed for respiratory infections in Equids. The results before the administration with gaseous NO had been unremarkable. […] All six horses were included in the study using gaseous NO.
The horses were brought individually to the veterinary hospital barn for further evaluation over the course of five days. An fiberoptic endoscope was passed to the level of the bifurcation of the trachea (carina-airway) with images recorded on videotape. A scoring system was used to indicate the presence or absence of mucus, as well as its severity, if present. This scoring system has been described by Dixon et. al., “Equine Pulmonary Disease: Ancillary Diagnostic Findings,” Equine Vet. Journal 27, 428-435, 1995, herein incorporated by reference in its entirety. A score of zero indicates the absence of mucus, while a score of 1 to 5 indicates increasing amounts of mucus observed endoscopically in the trachea. The attending Veterinarian conducting the examination did the scoring. All of the six horses scored 4 or higher before the initiation of the treatments.
Treatment intervention of inhaled gaseous Nitric Oxide was administered to all six horses during a five-day period. Five of the horses (#2-#6) received 100 breaths of 10,000 ppm resulting in, based on pulmonary mechanics, a lung concentration of approximately 160 ppm. Horse #1 received 100 breaths of 5000 ppm resulting in 80 ppm on Day #1 and a second administration of 100 breaths of 10,000 ppm on Day #5. Horse #5 received 100 breaths of 10,000 ppm on Day #3 and a second administration of 100 breaths of 10,000 ppm on Day #4.
An outline of the treatment results is provided below in Table No. 1 (with scores when available). […] On a day where a measurement and a treatment occur, such as Day #4 for Horse #5, the measurement was taken before the administration of the second dosage.

[4] = tested on: bovine; experiment: Preliminary experiments with bovine, mucus hydrolyzed and excreted from the nares; format: in vivo
Description: Thus, the Applicants believe that inhaled gaseous NO as an effective treatment to excess mucus accumulation in the airways of mammals.

**Q.** What does the source list for `[N]=O` [gNO, Nitric Oxide]?
**A.** Response to additional treatment cycles ([1]; horses with recurrence to scores of 2 or more in the weeks following the first treatment): repeatable marked reduction in mucus scores following treatment; Post-Mucus Score (after administering gNO) ([1]; individual horses 1-27, 100 breaths for a minimum of three days, airway concentration 160-200 ppm, post race endoscopy, Dixon scale 0-5): 2 (6×) and 0 (7×) and 3 (2×) and 4 (2×) and 1 (4×) and 1.5 (2×) and 2.5 (4×); Decrease in Mucus Score ([1]; individual horses 1-27, pre-score minus post-score, 100 breaths for a minimum of three days, 160-200 ppm): .5 (7×) and 1 (5×) and 2.5 (2×) and 3 (3×) and 3.5 (2×) and 2 (5×) and 1.5 and 0; Number of horses with decrease in score by at least 0.5 ([1]; of twenty-seven, Dixon et al. scale): Twenty five; Number of horses with score reduction of at least 1 ([1]; of twenty-seven, after a single treatment cycle): Eighteen; Number of subjects with decrease in mucus score from 2 to 3.5 ([1]; of twenty-seven, single or multiple treatments, transient reduction): Twelve; Improvement in mucus scores post treatment ([1]; twenty-seven horses enrolled): all but two showed significant improvement in their mucus scores; Prevention of mucus accumulation [2]: results in the prevention of mucus accumulation; Mucus score (endoscopic, 0-5) ([3]; Horse #1, Day #2, Tx 100 breaths at 5000 ppm on Day #1): Clear (0); Return of the previous amount of mucus (amount before administration of gNO), not scored ([3]; Horse #1, Day #3, Tx 100 breaths at 5000 ppm on Day #1): 25% rtn.; Mucus status ([3]; Horse #1, Day #4, Tx 100 breaths at 5000 ppm on Day #1): NG; Mucus status ([3]; Horse #1, Day #5, before second Tx (10,000 ppm), Tx 5000 ppm on Day #1): NG, Tx 10k; Mucus score (endoscopic, 0-5) ([3]; Horse #1, Day #6, Tx 5000 ppm Day #1 and Tx 100 breaths at 10,000 ppm Day #5): Trace (1); Mucus score (endoscopic, 0-5) ([3]; Horse #2, Day #2, Tx 100 breaths at 10,000 ppm on Day #1): Clear (0); Return of the previous amount of mucus (amount before administration of gNO), not scored ([3]; Horse #2, Day #3, Tx 100 breaths at 10,000 ppm on Day #1): 25% rtn.; Mucus status ([3]; Horse #2, Day #4, Tx 100 breaths at 10,000 ppm on Day #1): NG; Mucus status ([3]; Horse #2, Day #5, Tx 100 breaths at 10,000 ppm on Day #1): NG; Mucus score (endoscopic, 0-5) ([3]; Horse #3, Day #3, Tx 100 breaths at 10,000 ppm on Day #2): Clear (0); Mucus status ([3]; Horse #3, Day #4, Tx 100 breaths at 10,000 ppm on Day #2): NG; Mucus score (endoscopic, 0-5) ([3]; Horse #3, Day #5, Tx 100 breaths at 10,000 ppm on Day #2): Trace (2); Mucus score (endoscopic, 0-5) ([3]; Horse #4, Day #4, Tx 100 breaths at 10,000 ppm on Day #3): Clear (0); Return of the previous amount of mucus (amount before administration of gNO), not scored ([3]; Horse #4, Day #5, Tx 100 breaths at 10,000 ppm on Day #3): 25% rtn.; Mucus score (endoscopic, 0-5) ([3]; Horse #5, Day #4, before second dosage, Tx 100 breaths at 10,000 ppm on Day #3): Clear (0),; Mucus score (endoscopic, 0-5) ([3]; Horse #5, Day #5, Tx 100 breaths at 10,000 ppm on Day #3 and Day #4): Trace (2); Mucus score (endoscopic, 0-5) ([3]; Horse #5, Day #6, Tx 100 breaths at 10,000 ppm on Day #3 and Day #4): Trace (1); Mucus score (endoscopic, 0-5) ([3]; Horse #6, Day #6, Tx 100 breaths at 10,000 ppm on Day #5): Trace (2); Reduction in mucus from Day #1 ([3]; Horses #2 and #4 (25% of the mucus returned, not scored)): 75%; Side effects [3]: did not result in any irritation, inflammation or abnormal side effects; Side effects ([3]; listed as inhaled NO): no untoward side effects were observed; Observation immediately following administration ([3]; horses, inhaled): non-viscous liquids started to flow out of the nares of the horses; Time until non-viscous liquids start to flow out of the nares ([3]; six equine with excessive mucus accumulation, after inhalation): 10 to 30 min; Reduction of mucus ([3]; six equine, all subjects): reductions of mucus to trace levels in all subjects; Time until mucus is hydrolyzed and excreted from the nares [4]: 10 to 30 min
